Values quoted from earlier work, collected in US20240032540A1, “MICROPARTICLE COMPOSITIONS COMPRISING FUNGICIDES” (BASF CORPORATION, priority 2020, published 2024).

For `O=C(NCCc1ncc(C(F)(F)F)cc1Cl)c1ccccc1C(F)(F)F` [Fluopyram, N-{2-[3-chloro-5-(trifluoromethyl)-2-pyridyl]ethyl}-a,a,a-trifluoro-o-toluamide], the solubility in water is listed as “only sparingly soluble in water”.
